Patent US12480074B2, “Natural and synthetic cannabinoids as fluorescent tags; compositions, methods, and applications” (UNIVERSITY OF CONNECTICUT, priority 2023, dated 2025)

Tests used:
Assay type in all cases: physicochemical
[1] = Fluorescence viewed under long range UV light of 365 nm; settings: excitation at 365 nm
Source text: In fact, the fluorescence is tied to molecular structure as characterized by ^1H NMR. Phytocannabinoids THC and CBN, are fluorescent, with excitation at 365 nanometer (nm). When fluorescent, the CBN phenolic OH becomes broad meaning that it is in some way connected to the fluorescence of the molecule.

[2] = Absorption and fluorescence spectroscopy of CBN ether dimers (odd-even effect); settings: FIG. 9
Source text: A change in number of carbon atoms in the linker with respect to the fluorescence was observed. Absorption and fluorescence spectroscopy was used to evaluate this change with the different dimers and the results are provided in FIGS. 9-10. FIG. 9 is a stacked graph of fluorescence spectroscopy for the odd and even series of dimers of Example 12 (x-axis wavelength in nanometers; y-axis intensity) and FIG. 10 is a stacked graph of the absorption spectroscopy for the same dimers (x-axis wavelength in nanometers; y-axis intensity). […] By changing the number of carbons in linkers, it was observed that when the number of carbon spacer is odd (3C and 5C) the fluorescence is higher compared to the even (2C, 4C and 6C), and a distinct hump at higher wavelengths is observed for odd numbered linkers. This change in the spectra with changing the number of carbons is termed here as the “odd-even effect”.

[3] = Fluorescence of CBN-aniline
Description: The synthesis of CBN-aniline was conducted via C—O bond using copper catalyst. The product was characterized by ^1H NMR. […] The CBN-aniline can be formed into dimers by linking through the aniline amine.

[4] = Fluorescence quenching by phenylenediamine isomers in acetone
Description: Experiments were conducted to investigate the fluorescence quenching of cannabinol 2C ether dimer (Example 12) in acetone upon mixing with different isomers of phenylenediamine: ortho-phenylenediamine, meta-phenylenediamine, and para-phenylenediamine. […] This quenching phenomenon can be attributed to the electronic interactions and spatial arrangements of the amino groups in the different phenylenediamine isomers. Both ortho- and para-phenylenediamine have amino groups positioned such that they can effectively engage in electron-donating and resonance interactions with the excited state of cannabinol 2C ether dimer, facilitating non-radiative relaxation pathways such as photoinduced electron transfer (PET).

[5] = Fluorescence spectrometer analysis of cannabinoid monomers and adipate dimers
[6] = Stability of CBN observed by NMR
Source text: In some embodiments, charge transfer complexes will quench fluorescence, and FRET as it will enhance fluorescence and cause a shift in color. Such adaptations provide, for example, for observation and understanding of a drug as it travels through the body, moves through a cell wall, and binds to a receptor site.

| Compound | fluorescence (fluorescent or not) [1] | maximum fluorescence, Wavelength (nm) [5] [nm] | also measured |
| --- | --- | --- | --- |
| CCCCCc1cc2c(c(O)c1C(=O)O)[C@@H]1C=C(C)CC[C@H]1C(C)(C)O2 [D-9 THCA, Tetrahydrocannabinolic acid] | fluorescent properties |  |  |
| CCCCCc1cc(OCCCOc2cc(CCCCC)cc3c2-c2cc(C)ccc2C(C)(C)O3)c2c(c1)OC(C)(C)c1ccc(C)cc1-2 [3C] |  |  | fluorescence, odd carbon spacer compared to the even (2C, 4C and 6C) [2]: higher |
| CCCCCc1cc(O)c2c(c1)OC(C)(C)[C@@H]1CCC(C)=C[C@@H]21 [THC, tetrahydrocannabinol, reference compound] | fluorescent |  |  |
| CCCCCc1cc(OCCCCCOc2cc(CCCCC)cc3c2-c2cc(C)ccc2C(C)(C)O3)c2c(c1)OC(C)(C)c1ccc(C)cc1-2 [5C] |  |  | fluorescence, odd carbon spacer compared to the even (2C, 4C and 6C) [2]: higher |
| CCCCCc1cc(Oc2ccc(N)cc2)c2c(c1)OC(C)(C)c1ccc(C)cc1-2 [CBN-aniline] |  |  | fluorescent properties [3]: exhibited fluorescent properties |
| CCCCCc1cc(OCCOc2cc(CCCCC)cc3c2-c2cc(C)ccc2C(C)(C)O3)c2c(c1)OC(C)(C)c1ccc(C)cc1-2 [cannabinol 2C ether dimer, Dicannabinolethyleneether dimer] |  |  | fluorescence quenching with meta-phenylenediamine [4]: minimal quenching; fluorescence quenching with ortho-phenylenediamine [4]: significantly quenched; fluorescence quenching with para-phenylenediamine [4]: significantly quenched |
| CCCCCc1cc(O)c(C/C=C(\C)CCC=C(C)C)c(O)c1 [CBG, cannabigerol] | lacking in fluorescence |  |  |
| CCCCCc1cc(OC(=O)CCCCC(=O)Oc2cc(CCCCC)cc3c2-c2cc(C)ccc2C(C)(C)O3)c2c(c1)OC(C)(C)c1ccc(C)cc1-2 [CBN adipate dimer, DiCannabinol adipate] | fluorescent properties | 418 | fluorescence result compared among the cannabinoids tested ([5]; over THC adipate dimer): most promising results |
| CCCCCc1cc(OC(=O)CCCCC(=O)Oc2cc(CCCCC)cc3c2C2CC(C)=CCC2C(C)(C)O3)c2c(c1)OC(C)(C)C1CC=C(C)CC21 (stereo not drawn) [d-8 THC adipate dimer] | fluorescent properties | 384 |  |
| C=C(C)[C@@H]1CCC(C)=C[C@H]1c1c(O)cc(CCCCC)cc1O [CBD, cannabidiol, reference compound] | lacking in fluorescence |  |  |
| CCCCCc1cc(O)c2c(c1)OC(C)(C)c1ccc(C)cc1-2 [CBN, cannabinol] | fluorescent | 385 | fluorescence (fluorescent or not) ([1]; listed as Cannabinol (CBN)): fluorescent properties; chemical stability [6]: remains CBN for long durations |
| CCCCCc1cc(O)c2c(c1)OC(C)(C)[C@@H]1CC=C(C)C[C@@H]21 [D-8 THC] | fluorescent properties | 380 |  |
